From US8461183B2, “PPAR agonist compounds, preparation and uses” (Genfit, priority 2008, dated 2013)

Columns and labels:
[1] = tested on: 3 PPAR isoforms; experiment: PPAR agonist properties of compound 1, different method and equipment (not described)
Method: The measured activities differ depending on the compound tested and the compounds according to the invention are also observed to have varying selectivity with respect to the various isoforms of hPPAR: • Certain compounds according to the invention are selective for a subtype of PPAR. […] Compound 1 of the invention was also tested for its PPAR agonist properties. […] As the measurements obtained for compound 1 were carried out according to a different method and with different equipment, relative to the other 53 compounds in the examples, the corresponding results are not presented in Table 8-1 above.

[2] = molecular target: T1, hPPARγ (Homo sapiens, UniProt P37231); experiment: Gal4-hPPARγ chimera transactivation (luciferase) in COS-7 cells; assay type: cell-based; settings: 24 hours; for EC50: luciferase, read-out: PPARγ EC50; for Emax: relative to maximum activation obtained with rosiglitazone, read-out: PPARγ TOP % (maximum activation)
T1 construct: corresponding to the DEF domains (structural elements of the promoter of the PPARs: D=hinge, EF=ligand fixation domain and AF2 fixation site); expressed in transfected cells; host or cells: COS-7 (monkey kidney fibroblasts)
T1 sequence (P37231 238-503 limits assumed): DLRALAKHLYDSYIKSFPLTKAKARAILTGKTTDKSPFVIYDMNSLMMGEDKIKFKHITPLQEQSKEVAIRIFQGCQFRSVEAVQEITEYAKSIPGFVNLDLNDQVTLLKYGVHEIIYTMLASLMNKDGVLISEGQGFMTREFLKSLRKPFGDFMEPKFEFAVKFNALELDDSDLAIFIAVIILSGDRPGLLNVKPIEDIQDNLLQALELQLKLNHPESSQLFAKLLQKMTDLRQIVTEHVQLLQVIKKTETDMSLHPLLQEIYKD
Outline: (§1)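 COS-7 cells transfected with Gal4-DBD fused to human PPARγ or PPARδ DEF (hinge/ligand-binding) domain plus Gal4(RE)_TkpGL3 luciferase reporter (1:10).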

[3] = tested on: 3T3-L1 murine pre-adipocytes; experiment: PPARγ functional effect: adipogenesis in 3T3-L1 pre-adipocytes (triglycerides, adiponectin); assay type: cell-based, Mus musculus; settings: 3T3-L1, 9 days of treatment, 30 nM to 30 μM
Method: The functional effect of activation of PPARγ is evaluated in vitro on a line of pre-adipocyte cells 3T3-L1 (Thompson G M et al., 2004) by measuring the concentration of intracellular triglycerides and the concentration of adiponectin secreted in the culture medium after 9 days of treatment with the compounds according to the invention.
At confluence, the cells were then rinsed with PBS (Phosphate Buffered Saline solution) and the culture medium was replaced with DMEM 4.5 g/L glucose (10% FCS, 1% L-glutamine, 100 units/mL penicillin and 100 μg/mL streptomycin, 0.25 mM) containing a cocktail for initiation of adipocyte differentiation (IBMX (3-isobutyl-1-methylxanthine Sigma; 17018), 0.1 μM dexamethasone (Sigma; D1756) and 0.4 μM of insulin (Sigma; I2643). The cells were also treated with the compounds according to the invention (1 μL of solubilized compound/mL of medium, 200 μL per well).
After 2 days of incubation, the cells were washed with PBS and the differentiation medium was replaced with DMEM 4.5 g/L of glucose supplemented with 10% FCS, 1% L-glutamine, 100 units/mL penicillin and 100 μg/mL streptomycin, 0.4 μM insulin, and the compounds according to the invention for the purpose of completing cellular differentiation and obtaining adipocytes. The medium was changed every 2 days until total differentiation. After culture for 9 days, the treatment was stopped by withdrawing the culture medium, which was stored for assaying secreted adiponectin. The cells were then washed twice with PBS and placed in isopropanol for membrane permeabilization. The content of intracellular triglycerides was evaluated immediately.
Quantification of intracellular triglycerides was performed with the “Triglyceride Enzymatic PAP1000” kit (bioMérieux; 61238) according to the supplier's recommendations. Secreted adiponectin was measured in the culture medium using the “Mouse Adiponectin/Acrp30 Elisa Kit” kit (R&D Systems; DY1119) according to the supplier's recommendations.

[4] = molecular target: T2, hPPARδ (Homo sapiens, UniProt Q03181); experiment: Gal4-hPPARδ chimera transactivation (luciferase) in COS-7 cells; assay type: cell-based; settings: for EC50 / Emax: COS-7 cells, Gal4-hPPARδ, 24 hours; for EC50: luciferase, read-out: PPARδ EC50; for Emax: relative to maximum activation obtained with GW501516, read-out: PPARδ TOP % (maximum activation)
T2 construct: corresponding to the DEF domains (structural elements of the promoter of the PPARs: D=hinge, EF=ligand fixation domain and AF2 fixation site); expressed in transfected cells; host or cells: COS-7 (monkey kidney fibroblasts)
T2 sequence (Q03181 211-439 limits assumed): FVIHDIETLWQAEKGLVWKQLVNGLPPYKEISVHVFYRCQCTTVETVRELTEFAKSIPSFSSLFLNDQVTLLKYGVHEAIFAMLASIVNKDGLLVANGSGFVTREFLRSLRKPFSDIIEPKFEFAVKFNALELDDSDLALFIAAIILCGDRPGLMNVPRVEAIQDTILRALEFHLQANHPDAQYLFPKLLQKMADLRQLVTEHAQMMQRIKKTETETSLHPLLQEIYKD
Outline: as §1

[5] = molecular target: T3, hPPARα (Homo sapiens, UniProt Q07869); experiment: Gal4-hPPARα chimera transactivation (luciferase) in COS-7 cells; assay type: cell-based; settings: COS-7 cells, Gal4-hPPARα, 24 hours; for EC50: luciferase, read-out: PPARα EC50; for Emax: relative to maximum activation obtained with fenofibric acid, read-out: PPARα TOP % (maximum activation)
T3 construct: corresponding to the DEF domains (structural elements of the promoter of the PPARs: D=hinge, EF=ligand fixation domain and AF2 fixation site); expressed in transfected cells; host or cells: COS-7 (monkey kidney fibroblasts)
T3 sequence (Q07869 239-466 limits assumed): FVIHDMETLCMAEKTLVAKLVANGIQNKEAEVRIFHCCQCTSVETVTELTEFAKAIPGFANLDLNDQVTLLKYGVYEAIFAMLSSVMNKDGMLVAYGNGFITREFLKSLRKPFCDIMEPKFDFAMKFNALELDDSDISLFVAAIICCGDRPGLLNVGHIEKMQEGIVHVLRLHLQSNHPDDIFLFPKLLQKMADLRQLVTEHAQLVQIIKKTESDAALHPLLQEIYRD
Outline: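 COS-7 cells transiently co-transfected with Gal4 DBD–human PPARα, γ or δ DEF-domain chimeras plus Gal4(RE)_TkpGL3 luciferase reporter (1/10), seeded serum-free, then compound-treated 24 h at 37 °C in 1% Ultroser. Luciferase read after lysis; EC50 and TOP % relative to maximal activation by fenofibric acid (α), rosiglitazone (γ) or GW501516 (δ).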

[6] = tested on: PPARδ target genes (PDK4, CPT1b, UCP2) in murine myocytes; experiment: Expression of PPARδ target genes in murine myocytes (differentiated C2C12 cells); assay type: cell-based; settings: 24 hours, Cpd 7 at 0.1, 1, 10 μM, Cpd 24 at 0.2, 2, 20 μM, normalized to 36B4
Method: The PPARδ agonist properties previously measured in vitro were evaluated by measuring, in murine myocytes, the expression of genes involved in lipid and carbohydrate metabolism and energy expenditure (PDK4, CPT1b, UCP2). Regulation of expression of these genes, in this cell type, is a direct consequence of the activation of PPARδ by the compounds according to the invention. The greater the increase in expression of the genes, the more the compound according to the invention is a stimulator of metabolism in muscle cells (Dressel U et al., 2003).
The C2C12 murine cells (from ECACC) are cultivated in DMEM medium (Gibco; 41965-039) supplemented with 1% L-glutamine (Gibco; 25030), 1% penicillin/streptomycin (VWR; BWSTL0022/100) and 10% decomplemented fetal calf serum (FCS. Gibco; 10270-106).
The cells are seeded in 24-well plates at a density of 50×10^3 cells/well. At confluence, the medium is replaced with a differentiation medium (base culture medium supplemented with 2% of horse serum (Gibco; 26050-088)) then culture is continued at 37° C. and 5% CO2 for 7 days in order to permit differentiation of the myoblasts into myocytes.
After 6 days of differentiation, the cells are put in a deprivation medium (base culture medium without serum) for 6 hours. The cells are then treated with the compounds according to the invention in the deprivation medium. The compounds according to the invention were tested at doses of 0.1, 1, 10 μM and 0.2, 2 and 20 μM respectively. The compounds according to the invention were dissolved in dimethylsulfoxide (DMSO, Sigma; D5879). The cells are treated for 24 hours at 37° C., 5% CO2. The effects for the compounds tested were compared with the effect of DMSO alone at a concentration of 0.1%.
These procedures were performed on the cells essentially as described in Example 10 (point c) of the Protocols.
The following primer pairs specific to the genes investigated were used: […]

SMILES	selectivities for the 3 PPAR isoforms [1]	EC50 [2] [nM]	Emax [2] [%]	accumulation of triglycerides in adipocytes [3]	secretion of adiponectin [3]	EC50 [4] [nM]	Emax [4] [%]	EC50 [5] [nM]	Emax [5] [%]	selectivity among hPPAR isoforms (hPPARδ) ([4]; Gal4-hPPAR chimeras, COS-7)	expression of CPT1b [6]	expression of PDK4 [6]	expression of UCP2 [6]
COc1nc(-c2ccccc2)ccc1COc1ccc(OC(C)(C)C(=O)O)cc1 [Cpd 1, 2-(4-((2-methoxy-6-phenylpyridin-3-yl)methoxy)phenoxy)-2-methyl-propanoic acid]	comparable selectivities for the 3 PPAR isoforms	–	–	–	–	–	–	–	–	–	–	–	–
COc1nc(-c2ccc(C(F)(F)F)cc2)ccc1CNc1ccc(CCC(=O)O)cc1 [Cpd 36, 3-(4-(((2-methoxy-6-(4-(trifluoromethyl)phenyl)pyridin-3-yl)methyl)amino)-phenyl)propanoic acid]	–	1520	123	dose-dependent stimulation	dose-dependent stimulation	595	93.9	304	78	–	–	–	–
CC(C)(C)Oc1nc(-c2ccccc2)ccc1COc1ccc(OCC(=O)O)cc1 [Cpd 7]	–	46800	20.6	–	–	550	96.5	39600	28.9	selective with respect to hPPARδ	significant effects of stimulating expression	significant effects of stimulating expression	significant effects of stimulating expression
